Results on 14 compounds are retold here after US12037340B2, “Pentacyclic derivatives as Zika virus inhibitors” (Gilead Sciences, Inc., priority 2021, dated 2024).

The test concerns ZIKV. Description: microbe, parasite or virus in culture. Type of test: cell-based, Zika virus. The settings on record: 48 hrs.

Compound `CC[C@@H](C)[C@H](NC(=O)OC)C(=O)N1CCC[C@H]1c1nc(Cl)c(-c2ccc3c(c2)COc2cc4c(ccc5nc([C@@H]6CCCN6C(=O)[C@@H](NC(=O)OC)[C@H](C)CC)[nH]c54)cc2-3)[nH]1` [Compound 28, methyl ((2S,3R)-1-((S)-2-(4-chloro-5-(2-((S)-1-((methoxycarbonyl)-L-alloisoleucyl)pyrrolidin-2-yl)-1,11-dihydroisochromeno[4′,3′:6,7]naphtho[1,2-d]imidazol-9-yl)-1H-imidazol-2-yl)pyrrolidin-1-yl)-3-methyl-1-oxopentan-2-yl)carbamate] showed an EC50 (Zika virus, Huh-7) of 31.5 nM.

In the case of `CC[C@H](C)[C@H](NC(=O)OC)C(=O)N1[C@H](c2nc(Cl)c(-c3ccc4c(c3)COc3cc5c(ccc6nc([C@@H]7C[C@@H]8CCC[C@@H]8N7C(=O)[C@@H](NC(=O)OC)[C@@H](C)CC)[nH]c65)cc3-4)[nH]2)C[C@@H]2CCC[C@@H]21` [Compound 35, methyl ((2S,3S)-1-((2S,3aS,6aS)-2-(4-chloro-5-(2-((2S,3aS,6aS)-1-((methoxycarbonyl)-L-isoleucyl)octahydrocyclopenta[b]pyrrol-2-yl)-1,11-dihydroisochromeno[4′,3′:6,7]naphtho[1,2-d]imidazol-9-yl)-1H-imidazol-2-yl)hexahydrocyclopenta[b]pyrrol-l(2H)-yl)-3-methyl-1-oxopentan-2-yl)carbamate], a half-maximal effect (EC50) was put at 20.9 nM. Regarding `COC(=O)N[C@H](C(=O)N1[C@@H](C)CC[C@H]1c1nc(C2CC2)c(-c2ccc3c(c2)COc2cc4c(ccc5nc([C@@H]6CC[C@H](C)N6C(=O)[C@@H](NC(=O)OC)C6C[C@@H](C)O[C@H](C)C6)[nH]c54)cc2-3)[nH]1)C1C[C@@H](C)O[C@H](C)C1` (stereo partly drawn) [Compound 11, methyl ((S)-2-((2S,5S)-2-(9-(4-cyclopropyl-2-((2S,5S)-1-((S)-2-((2R,6R)-2,6-dimethyltetrahydro-2H-pyran-4-yl)-2-((methoxycarbonyl)amino)acetyl)-5-methylpyrrolidin-2-yl)-1H-imidazol-5-yl)-1,11-dihydroisochromeno[4′,3′:6,7]naphtho[1,2-d]imidazol-2-yl)-5-methylpyrrolidin-1-yl)-1-((2R,6R)-2,6-dimethyltetrahydro-2H-pyran-4-yl)-2-oxoethyl)carbamate], for the setting “Zika virus, Huh-7”, a half-maximal response (EC50) required 21.9 nM. The compound `COC[C@H]1C[C@@H](c2nc(Cl)c(-c3ccc4c(c3)COc3cc5c(ccc6nc([C@@H]7CC[C@H](C)N7C(=O)[C@@H](NC(=O)OC)C(C)C)[nH]c65)cc3-4)[nH]2)N(C(=O)[C@@H](NC(=O)OC)C(C)(C)C(F)(F)F)C1` [Compound 20, methyl ((S)-1-((2S,5S)-2-(9-(4-chloro-2-((2S,4S)-4-(methoxymethyl)-1-((S)-4,4,4-trilluoro-2-((methoxycarbonyl)amino)-3,3-dimethylbutanoyl)pyrrolidin-2-yl)-1H-imidazol-5-yl)-1,11-dihydroisochromeno[4′,3′:6,7]naphtho[1,2-d]imidazol-2-yl)-5-methylpyrrolidin-1-yl)-3-methyl-1-oxobutan-2-yl)carbamate] registered an EC50 of 5.4 nM. For the compound `COC(=O)N[C@H](C(=O)N1[C@@H](C)CC[C@H]1c1nc(Br)c(-c2ccc3c(c2)COc2cc4c(ccc5nc([C@@H]6CC[C@H](C)N6C(=O)[C@@H](NC(=O)OC)C6C[C@@H](C)O[C@H](C)C6)[nH]c54)cc2-3)[nH]1)C1CC(C)O[C@H](C)C1` (stereo in doubt) [Compound 10, methyl ((S)-2-((2S,5S)-2-(9-(4-bromo-2-((2S,5S)-1-((S)-2-((2R,6R)-2,6-dimethyltetrahydro-2H-pyran-4-yl)-2-((methoxycarbonyl)amino)acetyl)-5-methylpyrrolidin-2-yl)-1H-imidazol-5-yl)-1,11-dihydroisochromeno[4′,3′:6,7]naphtho[1,2-d]imidazol-2-yl)-5-methylpyrrolidin-1-yl)-1-((2R,6R)-2,6-dimethyltetrahydro-2H-pyran-4-yl)-2-oxoethyl)carbamate], for the setting “Zika virus, Huh-7”, a half-maximal response (EC50) required 18.8 nM. For `COC(=O)N[C@H](C(=O)N1[C@@H](C)CC[C@H]1c1nc(C(C)C)c(-c2ccc3c(c2)COc2cc4c(ccc5nc([C@@H]6CC[C@H](C)N6C(=O)[C@@H](NC(=O)OC)C(C)(C)C(F)(F)F)[nH]c54)cc2-3)[nH]1)C(C)(C)C(F)(F)F` [Compound 45, methyl ((S)-4,4,4-trifluoro-1-((2S,5S)-2-(4-isopropyl-5-(2-((2S,5S)-5-methyl-1-((S)-4,4,4-trifluoro-2-((methoxycarbonyl)amino)-3,3-dimethylbutanoyl)pyrrolidin-2-yl)-1,11-dihydroisochromeno[4′,3′:6,7]naphtho[1,2-d]imidazol-9-yl)-1H-imidazol-2-yl)-5-methylpyrrolidin-1-yl)-3,3-dimethyl-1-oxobutan-2-yl)carbamate], the EC50 (Zika virus, Huh-7) amounted to 4.9 nM. Still for that read-out and setting: next, `COC[C@H]1C[C@@H](c2nc(Cl)c(-c3ccc4c(c3)COc3cc5c(ccc6nc([C@@H]7CC[C@H](C)N7C(=O)[C@@H](NC(=O)OC)C(C)C)[nH]c65)cc3-4)[nH]2)N(C(=O)[C@@H](NC(=O)OC)C(C)C)C1` [Compound 7, methyl ((S)-1-((2S,5S)-2-(9-(4-chloro-2-((2S,4S)-1-((methoxycarbonyl)-L-valyl)-4-(methoxymethyl)pyrrolidin-2-yl)-1H-imidazol-5-yl)-1,11-dihydroisochromeno[4′,3′:6,7]naphtho[1,2-d]imidazol-2-yl)-5-methylpyrrolidin-1-yl)-3-methyl-1-oxobutan-2-yl)carbamate]: 39 nM; `CC[C@H](C)[C@H](NC(=O)OC)C(=O)N1C[C@@H](COC)C[C@H]1c1nc(C2CC2)c(-c2ccc3c(c2)COc2cc4c(ccc5nc([C@@H]6CC[C@H](C)N6C(=O)[C@@H](NC(=O)OC)C(C)C)[nH]c54)cc2-3)[nH]1` [Compound 18, methyl ((S)-1-((2S,5S)-2-(9-(4-cyclopropyl-2-((2S,4S)-1-((methoxycarbonyl)-L-isoleucyl)-4-(methoxymethyl)pyrrolidin-2-yl)-1H-imidazol-5-yl)-1,11-dihydroisochromeno[4′,3′:6,7]naphtho[1,2-d]imidazol-2-yl)-5-methylpyrrolidin-1-yl)-3-methyl-1-oxobutan-2-yl)carbamate]: 7.7 nM. Compound `COC(=O)N[C@H](C(=O)N1[C@@H](C)CC[C@H]1c1nc(F)c(-c2ccc3c(c2)COc2cc4c(ccc5nc([C@@H]6CC[C@H](C)N6C(=O)[C@@H](NC(=O)OC)C(C)C)[nH]c54)cc2-3)[nH]1)C(C)C` [Compound 33, methyl ((S)-1-((2S,5S)-2-(9-(4-fluoro-2-((2S,5S)-1-((methoxycarbonyl)-L-valyl)-5-methylpyrrolidin-2-yl)-1H-imidazol-5-yl)-1,11-dihydroisochromeno[4′,3′:6,7]naphtho[1,2-d]imidazol-2-yl)-5-methylpyrrolidin-1-yl)-3-methyl-1-oxobutan-2-yl)carbamate] had an EC50 (Zika virus, Huh-7) of 77.3 nM. Consider `COC(=O)N[C@H](C(=O)N1[C@@H](C)CC[C@H]1c1nc(Cl)c(-c2ccc3c(c2)COc2cc4c(ccc5nc([C@@H]6CC[C@H](C)N6C(=O)[C@@H](NC(=O)OC)C6C[C@@H](C)O[C@H](C)C6)[nH]c54)cc2-3)[nH]1)C1CC(C)O[C@H](C)C1` (stereo in doubt) [Compound 9, methyl ((S)-2-((2S,5S)-2-(9-(4-chloro-2-((2S,5S)-1-((S)-2-((2R,6R)-2,6-dimethyltetrahydro-2H-pyran-4-yl)-2-((methoxycarbonyl)amino)acetyl)-5-methylpyrrolidin-2-yl)-1H-imidazol-5-yl)-1,11-dihydroisochromeno[4′,3′:6,7]naphtho[1,2-d]imidazol-2-yl)-5-methylpyrrolidin-1-yl)-1-((2R,6R)-2,6-dimethyltetrahydro-2H-pyran-4-yl)-2-oxoethyl)carbamate], for which the EC50 (Zika virus, Huh-7) came to 48.1 nM. For the compound `COC[C@H]1C[C@@H](c2nc(Cl)c(-c3ccc4c(c3)COc3cc5c(ccc6nc([C@@H]7CC[C@H](C)N7C(=O)[C@@H](NC(=O)OC)C(C)C)[nH]c65)cc3-4)[nH]2)N(C(=O)[C@@H](NC(=O)OC)C2CCOCC2)C1` [Compound 6, methyl ((S)-1-((2S,5S)-2-(9-(4-chloro-2-((2S,4S)-1-((S)-2-((methoxycarbonyl)amino)-2-(tetrahydro-2H-pyran-4-yl)acetyl)-4-(methoxymethyl)pyrrolidin-2-yl)-1H-imidazol-5-yl)-1,11-dihydroisochromeno[4′,3′:6,7]naphtho[1,2-d]imidazol-2-yl)-5-methylpyrrolidin-1-yl)-3-methyl-1-oxobutan-2-yl)carbamate], it took 133 nM to reach a half-maximal effect (Zika virus, Huh-7) (EC50). `COC(=O)N[C@H](C(=O)N1[C@H](c2nc(Cl)c(-c3ccc4c(c3)COc3cc5c(ccc6nc([C@@H]7C[C@@H]8CCC[C@@H]8N7C(=O)[C@@H](NC(=O)OC)C(C)C)[nH]c65)cc3-4)[nH]2)C[C@@H]2CCC[C@@H]21)C(C)C` [Compound 34, methyl ((S)-1-((2S,3aS,6aS)-2-(4-chloro-5-(2-((2S,3aS,6aS)-1-((methoxycarbonyl)-L-valyl)octahydrocyclopenta[b]pyrrol-2-yl)-1,11-dihydroisochromeno[4′,3′:6,7]naphtho[1,2-d]imidazol-9-yl)-1H-imidazol-2-yl)hexahydrocyclopenta[b]pyrrol-l(2H)-yl)-3-methyl-1-oxobutan-2-yl)carbamate] returned an EC50 of 30.6 nM.

Consider `COC(=O)N[C@H](C(=O)N1[C@@H](C)CC[C@H]1c1nc(Cl)c(-c2ccc3c(c2)COc2cc4c(ccc5nc([C@@H]6CC[C@H](C)N6C(=O)[C@@H](NC(=O)OC)C(C)(C)CF)[nH]c54)cc2-3)[nH]1)C(C)(C)CF` [Compound 32, methyl ((S)-1-((2S,5S)-2-(4-chloro-5-(2-((2S,5S)-1-((S)-4-fluoro-2-((methoxycarbonyl)amino)-3,3-dimethylbutanoyl)-5-methylpyrrolidin-2-yl)-1,11-dihydroisochromeno[4′,3′:6,7]naphtho[1,2-d]imidazol-9-yl)-1H-imidazol-2-yl)-5-methylpyrrolidin-1-yl)-4-fluoro-3,3-dimethyl-1-oxobutan-2-yl)carbamate], for which the EC50 (Zika virus, Huh-7) came to 5.9 nM. `CC[C@H](C)[C@H](NC(=O)OC)C(=O)N1CCC[C@H]1c1nc(Cl)c(-c2ccc3c(c2)COc2cc4c(ccc5nc([C@@H]6CCCN6C(=O)[C@@H](NC(=O)OC)[C@@H](C)CC)[nH]c54)cc2-3)[nH]1` [Compound 27, methyl ((2S,3S)-1-((S)-2-(4-chloro-5-(2-((S)-1-((methoxycarbonyl)-L-isoleucyl)pyrrolidin-2-yl)-1,11-dihydroisochromeno[4′,3′:6,7]naphtho[1,2-d]imidazol-9-yl)-1H-imidazol-2-yl)pyrrolidin-1-yl)-3-methyl-1-oxopentan-2-yl)carbamate] returned an EC50 (Zika virus, Huh-7) of 15.3 nM.

Usually EC50 stands for the concentration at which the effect is half-maximal. The low end stands for higher potency in that assay, the high end for lower potency in that assay.
